Tests used:
[1] = tested on: RXRE transcriptional activity (COS-1 cells transfected with pRXRE, phRXRα and pRL); assay: RXRE-luciferase reporter gene assay; conditions: for absolute activity induced (firefly luciferase, not normalized): 24 h incubation conditions; for maximum enhancement of RXRE transcriptional activity: after 4–6 h of incubation
[2] = rat, gavage 40 mg/kg daily for 3 days; cited from earlier work
[3] = Metabolic stability with pooled human liver microsomes
[4] = 10 µM, glutathione 10 mM, NADPH, 60 min
[5] = In vivo disposition and metabolites of 3 in rats after gavage; set-up: species or system rat; conditions: after gavage of 3
[6] = Chemical stability of synthetic metabolite 4; format: physicochemical; conditions: air and moisture or DMSO solution
NFκB = NFκB luciferase assay; format: cell-based, Human

## C=C(c1ccc(C(=O)O)cc1)c1cc2c(cc1C)C(C)(C)CCC2(C)C [Compound 2, bexarotene, reference compound]
[1]
  absolute activity induced (firefly luciferase, not normalized): 22.4 ± 3.1 fold
  maximum enhancement of RXRE transcriptional activity: 10 fold
[1]; at 40 µM
  RXRE IR: 8.85±3.89

## NCCCn1c2c(c3ccc(N)cc3c1=O)C(=O)c1ccccc1-2 [Compound 3, 3-amino-6-(3'-aminopropyl)-5H-indeno[1,2-c]isoquinoline-5,11-(6H)dione]
[2]
  concentration in liver: 4.3 µg/g
  concentration in mammary gland: 0.3 µg/g
  concentration in serum: 800 ng/mL
[1]
  RXRE Highest IR (maximum induction ratio): 7.67±0.37
  absolute activity induced (firefly luciferase, not normalized): 40.5 ± 5.4 fold
  maximum enhancement of RXRE transcriptional activity: 5 fold
[1]; 24 h incubation, 5 µM
  RXRE induction: ~ 160 fold
[1]; 24 h incubation, Figure 9
  induction ratio normalized on Renilla luciferase activity: exceeded 100 fold
[3]; 1 µM, 1 mg protein/mL, 60 min
  elimination rate constant: 0.0053
[3]; both, human, microsomes, pH 7.4
  CLint scaled at 1 µM: 5.33 mL/min/kg
[4]
  formation of glutathione conjugates (electrophilic metabolites): no evidence of glutathione conjugates

## NCCCn1c2c(c3ccc(N)cc3c1=O)C(O)c1ccccc1-2 (centres unmarked) [Compound 4, 3-Amino-6-(3-aminopropyl)-11-hydroxy-6,11-dihydro-5H-indeno[1,2-c]isoquinolin-5-one]
[5]
  metabolite detected in rat liver: detected in rat liver
  metabolite detected in rat mammary tissue: not in serum or mammary tissue
[6]
  chemical stability: rather unstable and slowly oxidized back to 3

## CC(=O)Nc1ccc2c3c(n(CCCN)c(=O)c2c1)-c1ccccc1C3=O [Compound 5, N-[6-(3-Aminopropyl)-5,11-dioxo-6,11-dihydro-5H-indeno[1,2-c]isoquinolin-3-yl]acetamide]
[5]
  metabolite detected in rat liver: detected
  metabolite detected in rat mammary tissue: not in mammary tissue
  metabolite detected in rat serum: detected
[1]
  activity as inducer of RXRE transcriptional activity, in words: moderately active at high concentrations

## CC(=O)Nc1ccc2c3c(n(CCCN)c(=O)c2c1)-c1ccccc1C3O (centres unmarked) [Compound 6, N-[6-(3-Aminopropyl)-11-hydroxy-5-oxo-6,11-dihydro-5H-indeno[1,2-c]isoquinolin-3-yl]acetamide]
[5]
  metabolite observed in vivo using rats: all except 6 and 10 were observed in vivo

## Nc1ccc2c3c(n(CCCO)c(=O)c2c1)-c1ccccc1C3=O [Compound 7, 6-(3-Hydroxypropyl)-3-amino-5H-indeno[1,2-c]isoquinoline-5,11(6H)dione]
[5]
  metabolite detected in rat liver: detected in rat liver
  metabolite detected in rat mammary tissue: not in serum or mammary tissue

## Nc1ccc2c3c(n(CCCO)c(=O)c2c1)-c1ccccc1C3O (centres unmarked) [Compound 8, 3-Amino-11-hydroxy-6-(3-hydroxypropyl)-6,11-dihydro-5H-indeno[1,2-c]isoquinolin-5-one]
NFκB
  activity as inhibitor of NFκB, in words: inhibited activity as high concentrations
[5]
  metabolite detected in rat liver: detected in rat liver
  metabolite detected in rat mammary tissue: not in serum or mammary tissue

## CC(=O)Nc1ccc2c3c(n(CCCO)c(=O)c2c1)-c1ccccc1C3=O [Compound 9, N-[6-(3-Hydroxypropyl)-5,11-dioxo-6,11-dihydro-5H-indeno[1,2-c]isoquinolin-3-yl]acetamide]
[5]
  metabolite detected in rat liver: detected in rat liver
  metabolite detected in rat mammary tissue: not in serum or mammary tissue

## CNc1ccc2c3c(n(CCCNC(=O)OC(C)(C)C)c(=O)c2c1)-c1ccccc1C3O (centres unmarked) [Compound 27]
NFκB
  concentration range of NFκB inhibition, in words: sub-µM concentrations

## CNc1ccc2c3c(n(CCCN)c(=O)c2c1)-c1ccccc1C3O (centres unmarked) [Compound 29]
NFκB
  concentration range of NFκB inhibition, in words: sub-µM concentrations

## CNCCCn1c2c(c3ccc(N)cc3c1=O)C(O)c1ccccc1-2 (centres unmarked) [Compound 34]
NFκB
  concentration range of NFκB inhibition, in words: sub-µM concentrations
